{"source": "patent US20040186166A1", "about": "“Cannabinoid analogs as peroxisome proliferator activated nuclear receptor gamma activators” (priority 2002, published 2004)", "key": {"PPARδ": {"molecular_target": "T1, PPARδ (Mus musculus, UniProt P35396)", "T1 construct": "expressed in transfected cells; host or cells: HEK293 / HEK293T", "T1 sequence (P35396 1-440)": "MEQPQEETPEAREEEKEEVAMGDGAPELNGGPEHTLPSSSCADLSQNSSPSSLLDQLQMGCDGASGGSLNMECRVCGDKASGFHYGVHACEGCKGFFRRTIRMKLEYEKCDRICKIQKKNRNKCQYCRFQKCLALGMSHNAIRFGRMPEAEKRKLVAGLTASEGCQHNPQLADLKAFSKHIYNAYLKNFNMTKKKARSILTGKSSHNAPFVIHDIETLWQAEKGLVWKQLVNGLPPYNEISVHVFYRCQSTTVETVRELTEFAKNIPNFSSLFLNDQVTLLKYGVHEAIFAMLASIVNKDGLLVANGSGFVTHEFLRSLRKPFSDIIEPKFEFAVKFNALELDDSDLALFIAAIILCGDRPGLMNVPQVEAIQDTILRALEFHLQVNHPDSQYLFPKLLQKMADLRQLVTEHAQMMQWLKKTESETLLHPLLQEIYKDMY", "assay": "Partial protease (trypsin) digestion assay, PPARδ", "type": "binding", "settings": "2, 20 and 100 μM AJA", "procedure": "Partial protease digestion was carried out as described by Leng et. al. (J Steroid Biochem Mol Biol 46:643-61, 1993). PPAR proteins were made by in vitro transcription/translation reactions in reticulocyte lysate according to the manufacture's instructions (Promega). AJA, GW347845, or vehicle alone was incubated with the 35S-labeled PPARs at room temperature for one hour before trypsin digestion. Reactions were stopped by boiling in SDS-containing sample buffer, and lysates were subjected to SDS-PAGE and autoradiography.\nThe PPAR proteins were synthesized and labeled with ^35S-methionine in reticulocyte lysate and incubated with AJA, GW347845, or vehicle alone at room temperature for one hour before trypsin digestion. The reactions were terminated by boiling in SDS-containing protein sample buffer. The proteolytic patterns of PPAR proteins were then analyzed by SDS-PAGE and autoradiography, and compared with vehicle-treated control samples.\nThe AJA concentrations required to protect PPARγ from trypsin digestion were further measured."}, "PPARα": {"molecular_target": "T2, PPARα (Mus musculus, UniProt P23204)", "T2 construct": "expressed in transfected cells; host or cells: HEK293 / HEK293T", "T2 sequence (P23204 1-468)": "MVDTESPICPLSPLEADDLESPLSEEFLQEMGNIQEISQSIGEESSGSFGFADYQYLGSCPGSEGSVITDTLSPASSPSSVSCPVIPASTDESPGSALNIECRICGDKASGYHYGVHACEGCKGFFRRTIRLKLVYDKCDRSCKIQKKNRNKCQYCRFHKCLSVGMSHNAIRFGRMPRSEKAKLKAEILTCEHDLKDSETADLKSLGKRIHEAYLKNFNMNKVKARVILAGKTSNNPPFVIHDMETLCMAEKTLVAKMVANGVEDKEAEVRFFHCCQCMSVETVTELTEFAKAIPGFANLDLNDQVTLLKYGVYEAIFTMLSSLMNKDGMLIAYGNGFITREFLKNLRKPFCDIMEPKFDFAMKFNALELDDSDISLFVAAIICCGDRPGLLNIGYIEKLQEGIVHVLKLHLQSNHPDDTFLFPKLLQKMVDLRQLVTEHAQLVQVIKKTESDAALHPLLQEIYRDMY", "assay": "PPRE-TK-LUC reporter transient transfection, PPARα", "type": "cell-based", "settings": "1 to 20 μM AJA", "procedure": "For PPARγ activation assay, HEK293 cells were plated in 12-well cell culture plates and maintained in Dulbecco's modified Eagle's medium (DMEM) supplemented with 10% fetal bovine serum (FBS) at 37° C. under 5% CO2. Cells were changed to phenol red-free DMEM supplemented with 10% charcoal-stripped fetal bovine serum 3 hours before transfection by a standard calcium-phosphate precipitation method. Twelve hours after transfection, the cells were washed with phosphate-buffered saline (PBS) and fed again with fresh medium containing the indicated concentrations of compounds. After 36 hours, cells were harvested for β-galactosidase and luciferase activities as described previously (Li et al., Proc Natl Acad Sci USA 94:8479-84, 1997). The average normalized luciferase activity was determined via triplicate experiments. For IL-8 promoter assay, HeLa cells were maintained and transfected in the same way as described above. After transfection, cells were recovered for 4 hours before treatment with AJA, GW347845, or solvent. After 3-4 hours, cells were treated with or without 25 nM of phorbol myristate acetate (PMA) for 24 hours.\nIn an effort to confirm that AJA activates PPARγ selectively, the ability of AJA to activate PPARα and PPARδ was analyzed in a similar transient transfection assay."}, "human PPARδ": {"molecular_target": "T3, human PPARδ (Homo sapiens, UniProt Q03181)", "T3 construct": "The Gal4-hPPAR LBD constructs were obtained from GlaxoSmithKline; host or cells: HEK293", "T3 sequence (Q03181 211-439 limits assumed)": "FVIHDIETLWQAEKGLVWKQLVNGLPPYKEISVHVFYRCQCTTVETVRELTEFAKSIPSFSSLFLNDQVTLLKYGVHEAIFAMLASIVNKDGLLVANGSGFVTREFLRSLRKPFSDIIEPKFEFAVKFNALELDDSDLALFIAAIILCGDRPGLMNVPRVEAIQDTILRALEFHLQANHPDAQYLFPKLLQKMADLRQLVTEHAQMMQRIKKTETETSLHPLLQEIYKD", "assay": "Gal4-dependent MH100-Luc reporter, human PPARδ", "type": "cell-based", "procedure": "The pGEX-DRIP205 (527˜970) was obtained from the Sloan-Kettering Cancer Center. The Gal4-hPPAR LBD constructs were obtained from GlaxoSmithKline, Research Triangle Park, NC. The IL8-Luciferase reporter was obtained from Celgene, San Diego, Calif. The plasmids mPPARα, mPPARγ1, mPPARδ , and hRXRα were in the pCMX vector (Umesono et al., Cell 65:1255-1266, 1991).\nFor PPARγ activation assay, HEK293 cells were plated in 12-well cell culture plates and maintained in Dulbecco's modified Eagle's medium (DMEM) supplemented with 10% fetal bovine serum (FBS) at 37° C. under 5% CO2. […] The average normalized luciferase activity was determined via triplicate experiments. […]\nTo further confirm activation of PPARγ by AJA, and also to determine PPARγ species specificity, the ability of AJA to activate the chimeric Gal4-DBD/PPAR fusion proteins on a Gal4-dependent MH100-Luc reporter was assessed (FIG. 4A). The PPARs were expressed as Gal4 DBD fusion proteins, which bind to the UAS promoter containing 4 copies of a synthetic Gal4 binding site upstream of the minimal thymidine kinase (TK) promoter. […] Transfected cells were treated with increasing concentrations of AJA from 10-60 μM and the luciferase activities were determined in triplicate experiments. […]"}, "[1]": {"settings": "IL-1β and TNFα injected into subcutaneous air pouches, mice; cited from earlier work"}}}
{"smiles": "CCCCCCC(C)(C)c1cc(O)c2c(c1)OC(C)(C)[C@@H]1CC=C(C(=O)O)C[C@@H]21", "note": "[AJA, dimethylheptyl-THC-11-oic acid]", "values": [{"measurement": "proteinase sensitivity of PPARδ", "setting": "PPARδ", "value": "did not affect the proteinase sensitivity"}, {"measurement": "activation of PPARα", "setting": "PPARα", "value": "no further activation was observed"}, {"measurement": "activation of human PPARδ", "setting": "human PPARδ", "value": "did not activate"}, {"measurement": "acute inflammation", "setting": "[1]", "value": "suppress"}]}
